Laboratory results published in patent US20060167109A1, “Methods of reducing rhinovirus contagion and related compositions” (priority 2002, published 2006).
Several values for one entry are separate records, joined by “and”; a condition that tells them apart may be missing. Identical values can stand only once.

Tests used:
[1] = system: HRV3; assay: Multiple rounds of replication; assay type: cell-based, human rhinovirus; conditions: 2 μM added four hours post-attachment
Experimental: The next experiments were designed to answer the question as to whether the addition of pleconaril after the uncoating stage could affect the ability of progeny virions to initiate subsequent rounds of replication, i.e. reduce the infectivity of progeny virions. Cells were infected with HRV3 at a low MOI (0.01 pfu/cell) at room temperature. After removal of unattached virus, fresh medium was added and the cells were shifted to the higher temperature to allow uncoating to proceed. Four hours post-attachment, pleconaril or DMSO alone was added to the cultures, and plates were frozen at 12 hours (upon completion of a single cycle of replication) and 24 hours (upon completion of a second round of replication) post-infection. Virus yield from both rounds of replication was determined in the viral cytopathic effect assay.
HeLa cells in 6 well plates were infected with HRV3 at an MOI of 0.001 or 0.01 pfu/cell for 1 hour at room temperature in duplicate. The virus inoculum was then removed and the monolayers washed twice with DPBS. The cells were overlaid with 3 mL of M199 medium with 5% FBS and placed at 33° C. (HRV3). After 4 hrs, half of the wells received pleconaril to a final concentration of 2 μM in 0.5% DMSO, and half received DMSO alone. […] Virus yield was determined in the cytopathic effect assay after 2 cycles of chloroform extraction.

[2] = Cell toxicity (MTT) assay of cell growth; conditions: human, HeLa (WIS) cells; methyltetrazolium dye-based assay of cell growth
Experimental: To properly evaluate antiviral activity in cell culture assays, the 50% cytotoxic concentration (CC50) of the test compound was first determined so that any inhibitory effects on virus replication could be distinguished from effects due to compound cytotoxicity. The CC50 of pleconaril was determined using a methyltetrazolium dye-based assay of cell growth (Pevear, et al., 1999, Antimicrob. Agents Chemother., 43, 2109-2115).
Pleconaril was solubilized in dimethyl sulfoxide (DMSO). After dilution to the desired drug concentration, the final DMSO concentration in assays was 0.25%.

[3] = Rat tissue distribution studies; assay type: in vivo; conditions: estimated
Experimental: A 400 mg dose of pleconaril maintains antiviral concentrations at or above the concentration that inhibits 90% of the protoype HRV serotypes (90% Minimal Inhibitory Concentration or mic90) for a significant portion of the dosing interval after the first dose of pleconaril. A nasal tissue to plasma concentration ratio of five was estimated for pleconaril from rat tissue distribution studies.

[4] = system: HRV3; assay: Time of drug addition; assay type: cell-based, human rhinovirus
Experimental: To determine the stage in the virus replication cycle that is affected by pleconaril, time of drug addition studies were conducted. Pleconaril was added to cells either during viral attachment or at various times thereafter. Viral replication was allowed to proceed for a single cycle of growth (10-12 hours), at which time the cells were lysed by a freeze-thaw cycle, residual pleconaril was removed by chloroform extraction, and virus yield was determined in the cytopathic effect assay. A 2 μM concentration of pleconaril inhibited greater than 90% of the yield of HRV3 from a single cycle of growth if present during the virus attachment period.
Twenty-four well plates (Costar 3524) of HeLa cells were infected in duplicate with 250 μL of HRV3 in M199 medium with 5% FBS at a multiplicity of infection (MOI) of approximately 1 PFU/cell for 1 hour at room temperature. During a treatment (the “−1 h” timepoint), one set of duplicate wells for each virus received 2 μM pleconaril, while the remaining wells received DMSO (0.5% final concentration). After attachment, the cells were washed twice with 1 mL of DPBS, and then overlaid with fresh medium. Pleconaril (2 μM final concentration) was added to the wells at the indicated times. The plates were incubated at 33° C. (HRV3) for 10 hours, at which time they were frozen at −80° C. […]

[5] = system: 101 serotypes of HRVs; assay: Spectrum of activity in HRV cytopathic effect assay
Experimental: HRV stocks were grown in HeLa (WIS) cells in 150 cm^2 flasks, frozen/thawed 3 times, aliquoted and stored frozen at −80° C. The virus inoculum to be used in the assay for each virus was determined as follows. HeLa (WIS) cells were seeded on 96-well tissue culture plates (Costar, 3598) at a density of 2.8×10^4 cells/well in M199 medium (Sigma) supplemented with 5% heat-inactivated newborn bovine serum. Twenty-four hours later, serial 0.5 log10 dilutions of each virus stock were plated in octuplicate onto the cells in complete M199 medium (5% heat-inactivated fetal bovine serum (FBS), 0.15 mM MgCl2, and 7.5 μg/mL diethylamino-dextran (DEAE-dextran)). The plates were incubated for 3 days at 33° C. in a humidified, 2.5% CO2 atmosphere, then fixed with 5% glutaraldehyde and stained with 0.1% crystal violet. After rinsing and drying, the optical density of the wells was read at a wavelength of 570 nm (OD570) on a Bio-Tek model EL-310 plate reader.

[6] = system: HRV-89; assay: Attachment inhibition, 35S-radiolabeled virus; assay type: cell-based, human rhinovirus; conditions: HRV-89, ICAM-1 receptor, FIG. 5
Experimental: (§1) The ability of pleconaril to affect the attachment to cells of several HRV serotypes was examined. ^35S-radiolabeled virus was incubated with susceptible cells for 1 hour in the presence of various concentrations of pleconaril. Cell-associated virus was quantified by direct scintillation counting of cell lysates after removal of unbound virus.
(§2) ^35S-radiolabeled virus was preincubated with various concentrations of pleconaril or 0.5% DMSO alone for 1 hour at room temperature. Cells in 6 well plates were inoculated with 20,000 cpm of ^35S-radiolabeled virus/well in 0.5 mL of M199 medium with 5% FBS. Attachment was allowed to proceed for 1 hour at 33° C., at which time the inoculum was removed and the cells washed with 2 mL of medium. The cells were then lysed by a 15 minute incubation on ice in the presence of 250 μL/well of a solution containing detergent 1% Nonident P40 (NP40) and 20 mM chelator, ethylene diamine tetraacetic acid (EDTA) in water. Cell-associated radioactivity was quantified by liquid scintillation spectroscopy in a Wallac Model 1409 Liquid Scintillation Counter (Wallac Oy, Turku, Finland).

[7] = system: HRV-14; assay: Attachment inhibition, 35S-radiolabeled virus; assay type: cell-based, human rhinovirus; conditions: HRV-14, ICAM-1 receptor, FIG. 5
Experimental: as §1, §2

Cc1cc(CCCOc2c(C)cc(-c3noc(C(F)(F)F)n3)cc2C)on1 [pleconaril, 3-[3,5-dimethyl-4-[3-(3-methyl-5-isoxazolyl)propoxy]phenyl]-5-(trifluoromethyl)-1,2,4-oxadiazole]
yield of progeny virions from the first round of virus replication ([1]; 12 hours): little effect
second round of replication ([1]; 24 hours): completely prevented
CC50 [2]: 12.5 to 25 µM
nasal tissue to plasma concentration ratio [3]: five
reduction in virus yield ([4]; 2 μM, drug addition after attachment (0 hour timepoint)): < 1 log10
inhibition at 2 µM ([4]; Human rhinovirus sp., HRV3, present during the virus attachment period, read-out: inhibition of the yield of HRV3 from a single cycle of growth): > 90%
MIC50 ([5]; Human rhinovirus sp., read-out: MIC50 (concentration inhibiting 50% of the HRV serotypes)): ≤ 0.2 µM and ≤ 0.08 µg/mL
MIC80 ([5]; Human rhinovirus sp., read-out: MIC80 (concentration inhibiting 80% of the HRV serotypes)): ≤ 0.78 µM and ≤ 0.3 µg/mL
MIC90 ([5]; Human rhinovirus sp., read-out: MIC90 (concentration inhibiting 90% of the HRV serotypes)): ≤ 4.3 µM and ≤ 1.6 µg/mL
HRVs whose replication was inhibited ([5]; of 101 prototypic serotypes): 93 of 101
attachment of virus to cells [6]: inhibited
attachment of virus to cells [7]: inhibited
